Data as given in US8134015B2, “Compound inhibiting in vivo phosphorous transport and medicine containing the same” (Kyowa Hakko Kirin Co., Ltd., priority 2003, dated 2012).
Counter-ions that a name gives are not always drawn.

How the values were obtained:
[1] = tested on: rabbit jejunal brush border membrane vesicles; test: Sodium-dependent phosphate uptake of rabbit jejunal brush border membrane vesicles (32P, rapid filtration); format: biochemical; conditions: FIG. 1
Source text: Pharmacological Test Example 2
Experiment of Sodium-Dependent Phosphate Uptake of Rabbit Jejunal Brush Border Membrane Vesicles
(§1) Jejunal epithelium was obtained from New Zealand white male rabbits (7 weeks old, obtained from KITAYAMA LABES Co., Ltd. (Japan)), and brush border membrane vesicles were isolated by the calcium precipitation method described in Kanako Katai et al., J. Biochem. 121, 50-55, 1997, and Peerce, B. E. et al., Biochemistry 26, 4272-4279, 1987. Thereafter, for compound 29 and compound 68, the phosphate uptake inhibitory activity was measured using the same samples with ^32P radioactive phosphorus (manufactured by Daiichi Kagaku Inc. (Japan)) by the rapid filtration method described in Kanako Katai et al., J. Biochem. 121, 50-55, 1997. […] Further, in the same experiment, nonspective inhibitory activity against glucose absorption was determined using 14C-glucose (manufactured by Moravek Biochemical Inc. (US)). […] In both the experiments, a group with the addition of potassium chloride was used as a negative control for nonspecific uptake. All the test results given below were expressed in terms of average value±standard error. Student's t-test was used for a significant test of the control group and the test compound group.

[2] = tested on: rabbit jejunal brush border membrane vesicles; test: Nonspecific inhibitory activity against glucose absorption in rabbit jejunal brush border membrane vesicles (14C-glucose); format: biochemical; conditions: FIG. 2
Description: as §1

[3] = molecular target: T1, rat NaPi-2b (Rattus norvegicus, UniProt Q9JJ09); test: Sodium-dependent phosphate uptake of Xenopus oocytes which expressed NaPi-2b (32P); format: cell-based; conditions: for IC50: Xenopus oocytes expressing rat NaPi-2b, 32P radioactive phosphorus, read-out: IC50 (phosphate uptake inhibitory activity)
T1 construct: expressed in transfected cells; host or cells: Xenopus oocytes injected with cRNA
T1 sequence (Q9JJ09 1-695): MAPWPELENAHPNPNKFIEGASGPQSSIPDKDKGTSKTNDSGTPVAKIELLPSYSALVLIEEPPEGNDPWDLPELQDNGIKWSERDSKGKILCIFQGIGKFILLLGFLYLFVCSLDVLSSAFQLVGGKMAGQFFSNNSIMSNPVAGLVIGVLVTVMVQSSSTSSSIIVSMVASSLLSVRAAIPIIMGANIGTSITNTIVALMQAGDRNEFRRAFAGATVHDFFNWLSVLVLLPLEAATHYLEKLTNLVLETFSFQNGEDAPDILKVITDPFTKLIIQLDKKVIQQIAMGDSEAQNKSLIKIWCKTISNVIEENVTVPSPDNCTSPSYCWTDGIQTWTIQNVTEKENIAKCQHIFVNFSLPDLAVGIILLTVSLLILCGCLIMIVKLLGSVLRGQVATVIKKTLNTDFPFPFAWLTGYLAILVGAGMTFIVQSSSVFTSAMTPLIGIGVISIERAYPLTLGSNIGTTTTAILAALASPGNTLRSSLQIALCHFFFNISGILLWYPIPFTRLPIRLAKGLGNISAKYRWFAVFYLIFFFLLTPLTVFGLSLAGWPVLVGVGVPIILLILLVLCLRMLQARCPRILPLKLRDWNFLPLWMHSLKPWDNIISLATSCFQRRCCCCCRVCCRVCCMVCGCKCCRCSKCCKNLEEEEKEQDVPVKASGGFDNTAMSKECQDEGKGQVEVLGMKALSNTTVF
Procedure, shortened: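 Rat small-intestine NaPi-2b cRNA injected into Xenopus oocytes, expressed for 2 days. Sodium-dependent phosphate uptake measured with 32P; % inhibition at 300 and 100 μM taken from the same inhibition curve.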

[4] = molecular target: T2, human NaPi-2a (Homo sapiens, UniProt Q06495); test: Sodium-dependent phosphate uptake of Xenopus oocytes which expressed NaPi-2a (32P); format: cell-based; conditions: Xenopus oocytes expressing human NaPi-2a, FIG. 3, FIG. 4
T2 construct: expressed in transfected cells
T2 sequence (Q06495 1-639): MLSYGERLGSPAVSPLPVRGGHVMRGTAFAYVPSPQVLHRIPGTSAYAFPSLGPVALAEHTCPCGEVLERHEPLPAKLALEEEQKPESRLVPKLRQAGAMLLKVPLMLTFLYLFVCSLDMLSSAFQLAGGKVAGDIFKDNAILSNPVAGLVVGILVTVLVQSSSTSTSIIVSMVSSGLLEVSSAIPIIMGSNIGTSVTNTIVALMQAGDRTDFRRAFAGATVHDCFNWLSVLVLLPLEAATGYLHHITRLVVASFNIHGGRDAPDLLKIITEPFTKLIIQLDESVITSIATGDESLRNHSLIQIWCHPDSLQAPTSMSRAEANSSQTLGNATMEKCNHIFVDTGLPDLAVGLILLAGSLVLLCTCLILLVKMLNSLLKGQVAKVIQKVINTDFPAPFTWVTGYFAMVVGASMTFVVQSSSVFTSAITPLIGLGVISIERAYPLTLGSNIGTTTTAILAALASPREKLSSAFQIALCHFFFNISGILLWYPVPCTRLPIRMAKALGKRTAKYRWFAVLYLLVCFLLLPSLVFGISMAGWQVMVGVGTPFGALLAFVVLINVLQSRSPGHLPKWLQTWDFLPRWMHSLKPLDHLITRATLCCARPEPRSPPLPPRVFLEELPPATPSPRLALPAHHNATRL
Source text: Experiment of Sodium-Dependent Phosphate Uptake of Xenopus oocytes which Expressed NaPi-2a
In the test, a group with the addition of choline chloride (Choline Cl) was used as a negative control for nonspecific uptake, and PFA (phosphonoformic acid) was used as a positive control for phosphate transport inhibition.

[5] = tested on: SD rats; test: Inhibitory activity against 32P absorption from intestinal tract; format: in vivo; conditions: Rattus norvegicus, oral, read-out: Blood radioactivity inhibition, %
Description: Pharmacological Test Example 4
Inhibitory Activity Against ^32P Absorption from Intestinal Tract
SD rats (6 to 7 weeks old, obtained from Charles River Japan, Inc. (Japan)) were raised with low-phosphorus diet (phosphorus content 0.1%, manufactured by Oriental Yeast Co., Ltd. (Japan)) for 3 to 4 days and then fasted for about 24 hr for experiment. ^32P was diluted with purified water or liquid feed (CLEA JAPAN INC. (Japan)) to 0.7 to 3.5 MBq/ml and was forcibly orally administered at a dose of 5 ml/kg (administered into the gaster through an oral probe). The compounds or media were forcibly orally administered at a dose of 5 ml/kg (divided dose of twice), 30 min before the administration of ^32P and simultaneously with the administration of ^32P. Blood was collected from caudal artery 30 min, 45 min, or 60 min after ^32P administration, and blood ^32P radioactivity was measured with a liquid scintillation counter. Inhibition of an increase in blood radioactivity was used as a measure of inhibition of phosphate absorption from the intestinal tract.
The results are expressed in terms of the percentage inhibition determined by the following equation. (Blood radioactivity for group with the administration of medium−Blood radioactivity for group with the administration of compound)/(Blood radioactivity for group with the administration of medium)×100
t-Test was used for a significant test of the average value difference of blood radioactivity.

COc1ccc(C(=O)Nc2ccc(Br)cc2C(=O)N/N=C/c2cccc(F)c2)cc1OC [Compound 29, N-[4-Bromo-2-(3-fluoro-benzylidene-hydrazinocarbonyl)-phenyl]-3,4-dimethoxy-benzamide]
phosphate uptake inhibitory activity [1]: concentration-dependent inhibitory activity
nonspecific inhibitory activity against glucose absorption [2]: did not have the inhibitory activity
IC50 [3]: 0.55 µM
phosphate uptake inhibitory activity against NaPi-2b ([3]; Xenopus oocytes, FIG. 4): had inhibitory activity
phosphate uptake inhibitory activity against NaPi-2a [4]: had inhibitory activity

COc1ccc(C(=O)Nc2ccc(Cl)cc2C(=O)N/N=C/c2ccc(C)cc2)cc1OC [Compound 68, N-[4-Chloro-2-(4-methyl-benzylidene-hydrazinocarbonyl)-phenyl]-3,4-dimethoxy-benzamide]
phosphate uptake inhibitory activity [1]: concentration-dependent inhibitory activity
nonspecific inhibitory activity against glucose absorption [2]: did not have the inhibitory activity
IC50 [3]: 0.36 µM

Cc1ccc(/C=N/NC(=O)c2ccccc2NC(=O)c2ccncc2)cc1C [Compound 163, N-[2-(3,4-Dimethyl-benzylidene-hydrazinocarbonyl)-phenyl]-isonicotinamide hydrochloride]
inhibition in vivo at 360 mg/kg ([5]; dose 360 mg/kg): 57.8%
IC50 [3]: 1.6 µM

Cc1ccc(/C=N/NC(=O)c2ccccc2NC(=O)c2cccnc2)cc1 [Compound 164, N-[2-(4-Methyl-benzylidene-hydrazinocarbonyl)-phenyl]-nicotinamide hydrochloride]
inhibition in vivo at 400 mg/kg [5]: 55%
IC50 [3]: 4.76 µM

Cc1ccc(/C=N/NC(=O)c2ccccc2NC(=O)c2cccnc2)cc1C [Compound 165, N-[2-(3,4-Dimethyl-benzylidene-hydrazinocarbonyl)-phenyl]-nicotinamide hydrochloride]
inhibition in vivo at 400 mg/kg [5]: 27.6%
IC50 [3]: 2.43 µM

Cc1ccc(/C=N/NC(=O)c2cc(Br)ccc2NC(=O)c2cccnc2)cc1 [Compound 252, N-[4-Bromo-2-(4-methyl-benzylidene-hydrazinocarbonyl)-phenyl]-nicotinamide hydrochloride]
inhibition in vivo at 400 mg/kg [5]: 29.2%
IC50 [3]: 1.49 µM

Cc1cccc(/C=N/NC(=O)c2ccccc2NC(=O)c2ccncc2)c1 [Compound 253, N-[2-(3-Methyl-benzylidene-hydrazinocarbonyl)-phenyl]-isonicotinamide hydrochloride]
inhibition in vivo at 400 mg/kg [5]: 39%
IC50 [3]: 3.47 µM

CCN(CC)CCN(C)Cc1ccc(C(=O)Nc2ccc(Br)cc2C(=O)N/N=C/c2ccc(C)cc2)cc1 [Compound 285, N-[4-Bromo-2-(4-methyl-benzylidene-hydrazinocarbonyl)-phenyl]-4-{[(2-diethylamino-ethyl)-methyl-amino]-methyl}-benzamide]
inhibition in vivo at 80 mg/kg ([5]; dose 80 mg/kg): 60.3%
IC50 [3]: 0.9 µM

COc1cccc(/C=N/NC(=O)c2cc(Br)ccc2NC(=O)c2ccc(CN3CCC(N4CCCCC4)CC3)cc2)c1 [Compound 315, 4-[1,4′]Bipiperidinyl-1′-ylmethyl-N-[4-bromo-2-(3-methoxy-benzylidene-hydrazinocarbonyl)-phenyl]-benzamide]
inhibition in vivo at 100 mg/kg [5]: 42.4%
IC50 [3]: 9.02 µM

Cc1ccc(/C=N/NC(=O)c2cc(Cl)ccc2NC(=O)c2cccc(CN3CCC(N4CCCCC4)CC3)c2)cc1C [Compound 372, 3-[1,4′]Bipiperidinyl-1′-ylmethyl-N-[4-chloro-2-(3,4-dimethyl-benzylidene-hydrazinocarbonyl)-phenyl]-benzamide]
inhibition in vivo at 100 mg/kg [5]: 63.7%
IC50 [3]: 0.8 µM
